Measured values reported in the OPERA property sets (Mansouri et al. 2018).

| Compound | boiling point [°C] | melting point [°C] | also measured |
| --- | --- | --- | --- |
| ClC(Cl)(Cl)CC(Cl)(Cl)Cl | 206 | -27 |  |
| Ic1ccc(I)s1 |  | 41.5 |  |
| CC(C)CCC[C@@H](C)[C@H]1CC[C@H]2[C@@H]3CCC4=C[C@@H](O)CC[C@]4(C)[C@H]3CC[C@]12C |  | 132 |  |
| CCCCCCCCCCCCSP(SCCCCCCCCCCCC)SCCCCCCCCCCCC |  |  | ready biodegradability: not readily biodegradable |
| Cc1cnc2c(C(=O)O)c(Cl)ccc2c1 |  | 244 |  |
| O=C(Nc1ccc(Cl)c(Cl)c1)Nc1cc(Cl)ccc1Oc1ccc(Cl)cc1S(=O)(=O)O |  |  | ready biodegradability: not readily biodegradable; log10 BCF (fish): 1.87 |
| OC(C1=CC(=C(c2ccccn2)c2ccccn2)C=C1)(c1ccccn1)c1ccccn1 |  | 147 |  |
| O=c1ccc2cc3ccoc3c(O)c2o1 |  | 252 |  |
| OC1CCCCCCCCCCCCCC1 |  | 80.5 |  |
| CCC=C(C)C=C(C)C | 138 |  |  |
| CCCCCC(C)C(C)C (stereo unspecified) | 164 |  |  |
| C#CC(C)C | 26.3 | -89.7 |  |
| O=C(c1ccccc1)c1ccccn1 | 317 | 42 | ready biodegradability: readily biodegradable |
| NC(=O)C1CCN(CCCN2c3ccccc3Sc3ccc(Cl)cc32)CC1 |  | 139 |  |
| CCCCCCCCCCCCCCCC1CCCCC1 | 373 | 29 | log10 vapour pressure (mmHg): -6.46 |
| CCCCCCCCCCOC(=O)c1ccccc1C(=O)OCCCCCC |  | -4 |  |
| CC1(C)CC(NCCCCCCNC2CC(C)(C)NC(C)(C)C2)CC(C)(C)N1 |  | 64 |  |

| Compound | boiling point [°C] | melting point [°C] | also measured |
| --- | --- | --- | --- |
| CCCCCCCCCCCCCCCC(C)O (stereo unspecified) |  | 54 |  |
| CC(C)OC(=O)c1cc(C(=O)OC(C)C)cc([N+](=O)[O-])c1 |  | 65 |  |
| CC1(C)CC(=O)NC(=O)C1 |  | 145 |  |
| CCC(Oc1c(I)cc(I)cc1I)C(=O)O (stereo unspecified) |  | 124 |  |
| C[C@@H]1CC[C@H]2[C@@H]1[C@H]1[C@@H](CC[C@@]2(C)O)C1(C)C | 292 | 105 |  |
| CC(=O)c1cnccn1 |  | 77 |  |
| FC(F)(F)C(F)(F)C(F)(F)C(F)(F)C(F)(F)C(F)(F)OC(F)(F)C(F)(F)C(F)(F)C(F)(F)C(F)(F)C(F)(F)F | 181 | -90 |  |
| Nc1ccc(Cl)cc1N | 229 | 76 |  |
| c1ccc2c(c1)CCc1ccccc1N2 |  | 106 |  |
| COC(=O)c1ccccc1C | 215 |  |  |
| OCC(F)(F)C(F)(F)C(F)(F)C(F)(F)C(F)(F)C(F)(F)C(F)(F)C(F)(F)C(F)(F)C(F)F |  |  | ready biodegradability: not readily biodegradable |
| CC(C)CCCC(C)N (stereo unspecified) | 155 |  |  |
| COc1ccc(C(=NCc2ccccc2)c2ccc(OC)cc2)cc1 |  | 90 |  |
| c1ccc2cc3cc4ccccc4cc3cc2c1 |  | 357 | log10 Koc (L/kg): 5.81; log10 vapour pressure (mmHg): -8.6 |
| CCCCCCCCCCCCOC(=O)CCSCCC(=O)OCCCCCCCCCCCC |  | 41 | ready biodegradability: readily biodegradable |
| COc1c(Cl)c(Cl)c([N+](=O)[O-])c(Cl)c1Cl |  | 103 |  |
